Data as given in US4684664A, “Derivatives of β-(4-isocyano-1,2,3,4-diepoxycyclopentyl) acrylic acid” (Kureha Kagaku Kogyo Kabushiki Kaisha, priority 1984, dated 1987).
Converted amounts (≈) assume the structure as drawn.

Columns and labels:
Type in all cases: cell-based
[1] = test system: Salmonella paratyphi-A 1015; experiment: Antibacterial activity, agar-dilution MIC, organism No. 10; conditions: Salmonella enterica, PARATYPHI, read-out: Minimum Inhibitory Concentration
Outline: (§1)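 Specimen is incorporated into bouillon-agar medium at graded levels and the organisms are tested on these plates. The lowest level preventing growth is taken as the MIC (μg/ml of medium).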

[2] = test system: Klebsiella pneumoniae PCI-602; experiment: Antibacterial activity, agar-dilution MIC, organism No. 7; conditions: Klebsiella pneumoniae, PCI602; Organism No. 7, bouillon-agar; read-out: Minimum Inhibitory Concentration
Outline: as §1

[3] = test system: Staphylococcus aureus FDA 209PJc-1; experiment: Antibacterial activity, agar-dilution MIC, organism No. 1; conditions: Staphylococcus aureus, FDA209PJC1; Organism No. 1, bouillon-agar; read-out: Minimum Inhibitory Concentration
Outline: as §1

[4] = test system: Salmonella enteritidis G 14; experiment: Antibacterial activity, agar-dilution MIC, organism No. 12; conditions: Salmonella enterica, ENTERITIDIS; Organism No. 12, bouillon-agar; read-out: Minimum Inhibitory Concentration
Outline: as §1

[5] = test system: Serratia marcescens IAM 1184; experiment: Antibacterial activity, agar-dilution MIC, organism No. 13; conditions: Serratia marcescens, IAM1184; Organism No. 13, bouillon-agar; read-out: Minimum Inhibitory Concentration
Outline: as §1

[6] = test system: Salmonella shottmuelleri 8006; experiment: Antibacterial activity, agar-dilution MIC, organism No. 11; conditions: Salmonella, 8006; Organism No. 11, bouillon-agar; read-out: Minimum Inhibitory Concentration
Outline: as §1

[7] = test system: Enterobacter cloacae 963; experiment: Antibacterial activity, agar-dilution MIC, organism No. 24; conditions: Enterobacter cloacae, 963; Organism No. 24, bouillon-agar; read-out: Minimum Inhibitory Concentration
Outline: as §1

[8] = test system: Pseudomonas aeruginosa IFO 3445; experiment: Antibacterial activity, agar-dilution MIC, organism No. 15; conditions: Pseudomonas aeruginosa, IFO3445; Organism No. 15, bouillon-agar; read-out: Minimum Inhibitory Concentration
Outline: as §1

[9] = test system: Proteus vulgaris OX-19; experiment: Antibacterial activity, agar-dilution MIC, organism No. 20; conditions: Proteus vulgaris, OX19; Organism No. 20, bouillon-agar; read-out: Minimum Inhibitory Concentration
Outline: as §1

[10] = test system: Staphylococcus aureus MS 353; experiment: Antibacterial activity, agar-dilution MIC, organism No. 3; conditions: Staphylococcus aureus, MS353; Organism No. 3, bouillon-agar; read-out: Minimum Inhibitory Concentration
Outline: as §1

[11] = test system: Salmonella typhi 901; experiment: Antibacterial activity, agar-dilution MIC, organism No. 9; conditions: Salmonella enterica, TYPHI, read-out: Minimum Inhibitory Concentration
Outline: as §1

[12] = test system: Mycoplasma pneumoniae IID817; experiment: Antimycoplasmal activity, MIC by phenol red colour change, organism No. 28; conditions: Mycoplasma, IID817; Organism No. 28, PPLO broth + 1% glucose, 37° C.; read-out: Minimum Inhibitory Concentration (MIC)
Protocol: Mycoplasma pneumoniae IID817 was used as the test microorganism in a culture medium prepared by adding 1% of glucose to "PPLO broth (manufactured by Difco Co.) liquid culture medium" at 37° C. with phenol red as an indicator, thereby culturing the test microorganism.

[13] = test system: Salmonella typhimurium IID 971; experiment: Antibacterial activity, agar-dilution MIC, organism No. 8; conditions: Salmonella enterica; Organism No. 8, bouillon-agar; read-out: Minimum Inhibitory Concentration
Outline: as §1

[14] = test system: Escherichia coli K12 C600 IAM 1264; experiment: Antibacterial activity, agar-dilution MIC, organism No. 6; conditions: Escherichia coli, IAM1264; Organism No. 6, bouillon-agar; read-out: Minimum Inhibitory Concentration
Outline: as §1

[15] = test system: Escherichia coli NIHJ-JC-2; experiment: Antibacterial activity, agar-dilution MIC, organism No. 5; conditions: Escherichia coli, NIHJJC2; Organism No. 5, bouillon-agar; read-out: Minimum Inhibitory Concentration
Outline: as §1

[16] = test system: Streptococcus pyogenes IFO 3340; experiment: Antibacterial activity, agar-dilution MIC, organism No. 26; conditions: Streptococcus pyogenes, IFO3340; Organism No. 26, bouillon-agar; read-out: Minimum Inhibitory Concentration
Outline: as §1

[17] = test system: Streptococcus faecium IFO 3826; experiment: Antibacterial activity, agar-dilution MIC, organism No. 27; conditions: Enterococcus faecium, IFO3826; Organism No. 27, bouillon-agar; read-out: Minimum Inhibitory Concentration
Outline: as §1

[18] = test system: Proteus rettgeri IFO 3850; experiment: Antibacterial activity, agar-dilution MIC, organism No. 22; conditions: Providencia rettgeri, IFO3850; Organism No. 22, bouillon-agar; read-out: Minimum Inhibitory Concentration
Outline: as §1

[19] = test system: Micrococcus luteus ATCC 9341; experiment: Antibacterial activity, agar-dilution MIC, organism No. 25; conditions: Micrococcus luteus, ATCC9341; Organism No. 25, bouillon-agar; read-out: Minimum Inhibitory Concentration
Outline: as §1

[20] = test system: Proteus vulgaris HX-19; experiment: Antibacterial activity, agar-dilution MIC, organism No. 21; conditions: Proteus vulgaris, HX19; Organism No. 21, bouillon-agar; read-out: Minimum Inhibitory Concentration
Outline: as §1

[21] = test system: Bacillus subtilis ATCC 6633; experiment: Antibacterial activity, agar-dilution MIC, organism No. 14; conditions: Bacillus subtilis, ATCC6633; Organism No. 14, bouillon-agar; read-out: Minimum Inhibitory Concentration
Outline: as §1

[22] = test system: Staphylococcus aureus Terajima; experiment: Antibacterial activity, agar-dilution MIC, organism No. 2; conditions: Staphylococcus aureus; Organism No. 2, bouillon-agar; read-out: Minimum Inhibitory Concentration
Outline: as §1

[23] = test system: Candida albicans IAM 4905; experiment: Antifungal activity, agar-dilution MIC, organism No. 29; conditions: Candida albicans, IAM4905; Organism No. 29, bouillon-agar; read-out: Minimum Inhibitory Concentration
Outline: as §1

[24] = test system: Aspergillus niger IFO 6342; experiment: Antifungal activity, agar-dilution MIC, organism No. 30; conditions: Aspergillus niger, IFO6342; Organism No. 30, bouillon-agar; read-out: Minimum Inhibitory Concentration
Outline: as §1

[25] = test system: Streptococcus pyogenes Cook; experiment: Antibacterial activity, agar-dilution MIC, organism No. 4; conditions: Streptococcus pyogenes; Organism No. 4, bouillon-agar; read-out: Minimum Inhibitory Concentration
Outline: as §1

[26] = test system: Enterobacter aerogenes ATCC 13048; experiment: Antibacterial activity, agar-dilution MIC, organism No. 23; conditions: Klebsiella aerogenes, ATCC13048; Organism No. 23, bouillon-agar; read-out: Minimum Inhibitory Concentration
Outline: as §1

[27] = test system: Proteus mirabilis IFO 3849; experiment: Antibacterial activity, agar-dilution MIC, organism No. 19; conditions: Proteus mirabilis, IFO3849; Organism No. 19, bouillon-agar; read-out: Minimum Inhibitory Concentration
Outline: as §1

[28] = test system: Pseudomonas aeruginosa PAO 1; experiment: Antibacterial activity, agar-dilution MIC, organism No. 17; conditions: Pseudomonas aeruginosa, PAO1; Organism No. 17, bouillon-agar; read-out: Minimum Inhibitory Concentration
Outline: as §1

[29] = test system: Pseudomonas aeruginosa NCTC 10490; experiment: Antibacterial activity, agar-dilution MIC, organism No. 16; conditions: Pseudomonas aeruginosa, NCTC10490; Organism No. 16, bouillon-agar; read-out: Minimum Inhibitory Concentration
Outline: as §1

[30] = test system: Proteus morganii IFO 3848; experiment: Antibacterial activity, agar-dilution MIC, organism No. 18; conditions: Morganella morganii, IFO3848; Organism No. 18, bouillon-agar; read-out: Minimum Inhibitory Concentration
Outline: as §1

Structure (SMILES)	MIC [1]	MIC [2]	MIC [3]	MIC [4]	MIC [5]	MIC [6]	MIC [7]	MIC [8]	MIC [9]	MIC [10]	MIC [11]	MIC [12]	MIC [13]	MIC [14]	MIC [15]	MIC [16]	MIC [17]	MIC [18]	MIC [19]	MIC [20]	other results
[C-]#[N+]C12CC3(/C=C/C(=O)OCc4ccccc4[N+](=O)[O-])OC3C1O2 (stereo not drawn) [compound 13]	25 µg/mL (≈ 76.2 µM)	25 µg/mL (≈ 76.2 µM)	0.39 µg/mL (≈ 1.19 µM)	200 µg/mL (≈ 609 µM)	100 µg/mL (≈ 305 µM)	12.5 µg/mL (≈ 38.1 µM)	> 200 µg/mL	> 200 µg/mL	25 µg/mL (≈ 76.2 µM)	0.39 µg/mL (≈ 1.19 µM)	50 µg/mL (≈ 152 µM)	0.2 µg/mL	200 µg/mL (≈ 609 µM)	100 µg/mL (≈ 305 µM)	100 µg/mL (≈ 305 µM)	100 µg/mL (≈ 305 µM)	0.78 µg/mL (≈ 2.38 µM)	100 µg/mL (≈ 305 µM)	< 0.1 µg/mL	0.1 µg/mL (≈ 0.305 µM)	MIC [21]: 25 µg/mL (≈ 76.2 µM); MIC [22]: 0.39 µg/mL (≈ 1.19 µM); MIC [23]: 0.8 µg/mL (≈ 2.44 µM); MIC [24]: 6.25 µg/mL (≈ 19 µM); MIC [25]: 100 µg/mL (≈ 305 µM); MIC [26]: > 200 µg/mL; MIC [27]: > 200 µg/mL; MIC [28]: > 200 µg/mL; MIC [29]: > 200 µg/mL; MIC [30]: 12.5 µg/mL (≈ 38.1 µM)
[C-]#[N+]C12CC3(/C=C/C(=O)OCc4cccc([N+](=O)[O-])c4)OC3C1O2 (stereo not drawn) [compound 14]	200 µg/mL (≈ 609 µM)	200 µg/mL (≈ 609 µM)	200 µg/mL (≈ 609 µM)	> 200 µg/mL	> 200 µg/mL	200 µg/mL (≈ 609 µM)	> 200 µg/mL	> 200 µg/mL	200 µg/mL (≈ 609 µM)	200 µg/mL (≈ 609 µM)	200 µg/mL (≈ 609 µM)	3.13 µg/mL	> 200 µg/mL	> 200 µg/mL	> 200 µg/mL	> 200 µg/mL	200 µg/mL (≈ 609 µM)	> 200 µg/mL	0.78 µg/mL (≈ 2.38 µM)	12.5 µg/mL (≈ 38.1 µM)	MIC [21]: 200 µg/mL (≈ 609 µM); MIC [22]: 200 µg/mL (≈ 609 µM); MIC [23]: 12.5 µg/mL (≈ 38.1 µM); MIC [24]: 25 µg/mL (≈ 76.2 µM); MIC [25]: > 200 µg/mL; MIC [26]: > 200 µg/mL; MIC [27]: > 200 µg/mL; MIC [28]: > 200 µg/mL; MIC [29]: > 200 µg/mL; MIC [30]: 200 µg/mL (≈ 609 µM)
[C-]#[N+]C12CC3(/C=C/C(=O)OCc4ccc([N+](=O)[O-])cc4)OC3C1O2 (stereo not drawn) [compound 15]	25 µg/mL (≈ 76.2 µM)	12.5 µg/mL (≈ 38.1 µM)	25 µg/mL (≈ 76.2 µM)	50 µg/mL (≈ 152 µM)	> 100 µg/mL	12.5 µg/mL (≈ 38.1 µM)	> 100 µg/mL	> 100 µg/mL	6.25 µg/mL (≈ 19 µM)	25 µg/mL (≈ 76.2 µM)	25 µg/mL (≈ 76.2 µM)	12 µg/mL	50 µg/mL (≈ 152 µM)	50 µg/mL (≈ 152 µM)	50 µg/mL (≈ 152 µM)	50 µg/mL (≈ 152 µM)	25 µg/mL (≈ 76.2 µM)	> 100 µg/mL	< 0.1 µg/mL	< 0.1 µg/mL	MIC [21]: 50 µg/mL (≈ 152 µM); MIC [22]: 50 µg/mL (≈ 152 µM); MIC [23]: 6.25 µg/mL (≈ 19 µM); MIC [24]: 6.25 µg/mL (≈ 19 µM); MIC [25]: 50 µg/mL (≈ 152 µM); MIC [26]: > 100 µg/mL; MIC [27]: 100 µg/mL (≈ 305 µM); MIC [28]: > 100 µg/mL; MIC [29]: > 100 µg/mL; MIC [30]: 25 µg/mL (≈ 76.2 µM)
[C-]#[N+]C12CC3(/C=C/C(=O)OCC(C)C)OC3C1O2 (stereo not drawn) [compound 18]	1.56 µg/mL (≈ 6.26 µM)	1.56 µg/mL (≈ 6.26 µM)	0.39 µg/mL (≈ 1.56 µM)	6.25 µg/mL (≈ 25.1 µM)	200 µg/mL (≈ 802 µM)	0.78 µg/mL (≈ 3.13 µM)	200 µg/mL (≈ 802 µM)	> 200 µg/mL	0.2 µg/mL (≈ 0.802 µM)	3.13 µg/mL (≈ 12.6 µM)	3.13 µg/mL (≈ 12.6 µM)	< 0.2 µg/mL	12.5 µg/mL (≈ 50.1 µM)	12.5 µg/mL (≈ 50.1 µM)	12.5 µg/mL (≈ 50.1 µM)	1.56 µg/mL (≈ 6.26 µM)	12.5 µg/mL (≈ 50.1 µM)	100 µg/mL (≈ 401 µM)	1.56 µg/mL (≈ 6.26 µM)	0.1 µg/mL (≈ 0.401 µM)	MIC [21]: 0.78 µg/mL (≈ 3.13 µM); MIC [22]: 12.5 µg/mL (≈ 50.1 µM); MIC [23]: 0.2 µg/mL (≈ 0.802 µM); MIC [24]: 0.78 µg/mL (≈ 3.13 µM); MIC [25]: 0.78 µg/mL (≈ 3.13 µM); MIC [26]: > 200 µg/mL; MIC [27]: 6.25 µg/mL (≈ 25.1 µM); MIC [28]: > 200 µg/mL; MIC [29]: 200 µg/mL (≈ 802 µM); MIC [30]: 3.13 µg/mL (≈ 12.6 µM)
